Test system: FLK-1 receptor
Test: FLK-1 Assay (cellular/catalytic ELISA, VEGF-stimulated phosphotyrosine)
Assay type: cell-based
Set-up: concentration or dose not given beside the values
Summary of the method: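 Receptor phosphotyrosine ELISA: Flk-1-expressing NIH3T3 C7#3 cells, starved overnight in 0.1% FBS medium, received compound (1:200 final dilution, 0.5% DMSO) for 2 h at 37 °C, then VEGF. Anti-FLK-1-captured receptor was probed with anti-phosphotyrosine UB40 and peroxidase/ABTS read-out, relative to cells without compound.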

Row | SMILES | Flk Kinase % Inhibition (P.110)
1 | CCOC(=O)c1c(C)[nH]c(C=C2C(=O)Nc3c(Br)cc(Br)c(C)c32)c1C [10718/H02] | −1.4%
2 | COc1cc(Br)c(O)c(C=C2C(=O)Nc3c(Br)cc(Br)c(C)c32)c1 [10718/H03] | −5.0%
3 | Cc1c(Br)cc(Br)c2c1C(=Cc1ccc3ccccc3c1O)C(=O)N2 [10718/H04] | −5.7%
4 | CCOC(=O)CCc1c(C(=O)OCC)[nH]c(C=C2C(=O)Nc3c(Br)cc(Br)c(C)c32)c1CC(=O)OCC [10718/H05] | 1.0%
5 | CCOC(=O)c1cc(C=C2C(=O)Nc3c(Br)cc(Br)c(C)c32)oc1C [10718/H06] | 18.2%
6 | COC(=O)c1[nH]c(C)c(C=C2C(=O)Nc3c(Br)cc(Br)c(C)c32)c1C(=O)OC [10718/H07] | −3.0%
7 | Cc1c(Br)cc(Br)c2c1C(=Cc1ccc(Cl)c([N+](=O)[O-])c1)C(=O)N2 [10718/H08] | −0.5%
8 | CCOc1cccc(C=C2C(=O)Nc3c(Br)cc(Br)cc32)c1O [10734/A02] | 4.1%
9 | O=C1Nc2c(Br)cc(Br)cc2C1=Cc1cc(Cl)cc(Cl)c1O [10734/A03] | 10.1%
10 | O=C1Nc2c(Br)cc(Br)cc2C1=Cc1cc(Cl)ccc1O [10734/A04] | 0.6%
11 | CCN(CC)c1ccc(C=C2C(=O)Nc3c(Br)cc(Br)cc32)c(O)c1 [10734/A05] | 9.1%
12 | O=C1Nc2c(Br)cc(Br)cc2C1=Cc1ccc([N+](=O)[O-])cc1 [10734/A06] | −6.4%
13 | O=C1Nc2c(Br)cc(Br)cc2C1=Cc1cc(Br)cc(Br)c1O [10734/A07] | −9.4%
14 | O=C1Nc2c(Br)cc(Br)cc2C1=Cc1cccc(F)c1O [10734/A08] | 0.1%
15 | O=C1Nc2c(Br)cc(Br)cc2C1=Cc1ccc(O)c(Br)c1 [10734/A09] | −7.9%
16 | CC(C)(C)c1ccc(C=C2C(=O)Nc3c(Br)cc(Br)cc32)cc1 [10734/A10] | 4.4%
17 | O=C1Nc2c(Br)cc(Br)cc2C1=Cc1ccc(Br)s1 [10734/A11] | 6.3%
18 | CCOc1cccc(C=C2C(=O)Nc3ccc(I)cc32)c1O [10734/B02] | 8.5%
19 | O=C1Nc2ccc(I)cc2C1=Cc1cc(Cl)cc(Cl)c1O [10734/B03] | 21.7%
20 | O=C1Nc2ccc(I)cc2C1=Cc1cc(Cl)ccc1O [10734/B04] | 2.8%
21 | CCN(CC)c1ccc(C=C2C(=O)Nc3ccc(I)cc32)c(O)c1 [10734/B05] | −2.3%
22 | O=C1Nc2ccc(I)cc2C1=Cc1ccc([N+](=O)[O-])cc1 [10734/B06] | −0.9%
23 | O=C1Nc2ccc(I)cc2C1=Cc1cc(Br)cc(Br)c1O [10734/B07] | 9.1%
24 | O=C1Nc2ccc(I)cc2C1=Cc1cccc(F)c1O [10734/B08] | −0.5%
25 | O=C1Nc2ccc(I)cc2C1=Cc1ccc(O)c(Br)c1 [10734/B09] | −32.3%
26 | CC(C)(C)c1ccc(C=C2C(=O)Nc3ccc(I)cc32)cc1 [10734/B10] | 15.7%

Row | SMILES | Flk Kinase % Inhibition (P.110)
27 | O=C1Nc2ccc(I)cc2C1=Cc1ccc(Br)s1 [10734/B11] | 12.6%
28 | CCOc1cccc(C=C2C(=O)Nc3ccc(Br)c(C)c32)c1O [10734/C02] | −3.9%
29 | Cc1c(Br)ccc2c1C(=Cc1cc(Cl)cc(Cl)c1O)C(=O)N2 [10734/C03] | −5.6%
30 | Cc1c(Br)ccc2c1C(=Cc1cc(Cl)ccc1O)C(=O)N2 [10734/C04] | −37.6%
31 | CCN(CC)c1ccc(C=C2C(=O)Nc3ccc(Br)c(C)c32)c(O)c1 [10734/C05] | −10.3%
32 | Cc1c(Br)ccc2c1C(=Cc1ccc([N+](=O)[O-])cc1)C(=O)N2 [10734/C06] | −1.7%
33 | Cc1c(Br)ccc2c1C(=Cc1cc(Br)cc(Br)c1O)C(=O)N2 [10734/C07] | −2.7%
34 | Cc1c(Br)ccc2c1C(=Cc1cccc(F)c1O)C(=O)N2 [10734/C08] | −34.2%
35 | Cc1c(Br)ccc2c1C(=Cc1ccc(O)c(Br)c1)C(=O)N2 [10734/C09] | −13.3%
36 | Cc1c(Br)ccc2c1C(=Cc1ccc(C(C)(C)C)cc1)C(=O)N2 [10734/C10] | 10.1%
37 | Cc1c(Br)ccc2c1C(=Cc1ccc(Br)s1)C(=O)N2 [10734/C11] | 6.3%
38 | CCOc1cccc(C=C2C(=O)Nc3ccc(S(=O)(=O)NC)cc32)c1O [10734/D02] | −11.5%
39 | CNS(=O)(=O)c1ccc2c(c1)C(=Cc1cc(Cl)cc(Cl)c1O)C(=O)N2 [10734/D03] | 17.4%
40 | CNS(=O)(=O)c1ccc2c(c1)C(=Cc1cc(Cl)ccc1O)C(=O)N2 [10734/D04] | 6.1%
41 | CCN(CC)c1ccc(C=C2C(=O)Nc3ccc(S(=O)(=O)NC)cc32)c(O)c1 [10734/D05] | 2.4%
42 | CNS(=O)(=O)c1ccc2c(c1)C(=Cc1ccc([N+](=O)[O-])cc1)C(=O)N2 [10734/D06] | 0.0%
43 | CNS(=O)(=O)c1ccc2c(c1)C(=Cc1cc(Br)cc(Br)c1O)C(=O)N2 [10734/D07] | 14.7%
44 | CNS(=O)(=O)c1ccc2c(c1)C(=Cc1cccc(F)c1O)C(=O)N2 [10734/D08] | 2.5%
45 | CNS(=O)(=O)c1ccc2c(c1)C(=Cc1ccc(O)c(Br)c1)C(=O)N2 [10734/D09] | −11.6%
46 | CNS(=O)(=O)c1ccc2c(c1)C(=Cc1ccc(C(C)(C)C)cc1)C(=O)N2 [10734/D10] | 11.1%
47 | CNS(=O)(=O)c1ccc2c(c1)C(=Cc1ccc(Br)s1)C(=O)N2 [10734/D11] | 9.8%
48 | CCOc1cccc(C=C2C(=O)Nc3ccc(S(=O)(=O)Nc4ccc(C(F)(F)F)cc4)cc32)c1O [10734/E02] | 7.9%
49 | O=C1Nc2ccc(S(=O)(=O)Nc3ccc(C(F)(F)F)cc3)cc2C1=Cc1cc(Cl)cc(Cl)c1O [10734/E03] | 26.9%
50 | O=C1Nc2ccc(S(=O)(=O)Nc3ccc(C(F)(F)F)cc3)cc2C1=Cc1cc(Cl)ccc1O [10734/E04] | 10.7%
51 | CCN(CC)c1ccc(C=C2C(=O)Nc3ccc(S(=O)(=O)Nc4ccc(C(F)(F)F)cc4)cc32)c(O)c1 [10734/E05] | 10.6%
52 | O=C1Nc2ccc(S(=O)(=O)Nc3ccc(C(F)(F)F)cc3)cc2C1=Cc1ccc([N+](=O)[O-])cc1 [10734/E06] | 28.4%

Row | SMILES | Flk Kinase % Inhibition (P.110)
53 | O=C1Nc2ccc(S(=O)(=O)Nc3ccc(C(F)(F)F)cc3)cc2C1=Cc1cc(Br)cc(Br)c1O [10734/E07] | 27.9%
54 | O=C1Nc2ccc(S(=O)(=O)Nc3ccc(C(F)(F)F)cc3)cc2C1=Cc1cccc(F)c1O [10734/E08] | 26.6%
55 | O=C1Nc2ccc(S(=O)(=O)Nc3ccc(C(F)(F)F)cc3)cc2C1=Cc1ccc(O)c(Br)c1 [10734/E09] | 8.0%
56 | CC(C)(C)c1ccc(C=C2C(=O)Nc3ccc(S(=O)(=O)Nc4ccc(C(F)(F)F)cc4)cc32)cc1 [10734/E10] | 18.5%
57 | O=C1Nc2ccc(S(=O)(=O)Nc3ccc(C(F)(F)F)cc3)cc2C1=Cc1ccc(Br)s1 [10734/E11] | 19.2%
58 | CCOc1cccc(C=C2C(=O)Nc3ccc(S(=O)(=O)N4CCOCC4)cc32)c1O [10734/F02] | 6.2%
59 | O=C1Nc2ccc(S(=O)(=O)N3CCOCC3)cc2C1=Cc1cc(Cl)cc(Cl)c1O [10734/F03] | 4.2%
60 | O=C1Nc2ccc(S(=O)(=O)N3CCOCC3)cc2C1=Cc1cc(Cl)ccc1O [10734/F04] | −2.6%
61 | CCN(CC)c1ccc(C=C2C(=O)Nc3ccc(S(=O)(=O)N4CCOCC4)cc32)c(O)c1 [10734/F05] | 9.8%
62 | O=C1Nc2ccc(S(=O)(=O)N3CCOCC3)cc2C1=Cc1ccc([N+](=O)[O-])cc1 [10734/F06] | 11.0%
63 | O=C1Nc2ccc(S(=O)(=O)N3CCOCC3)cc2C1=Cc1cc(Br)cc(Br)c1O [10734/F07] | 6.6%
64 | O=C1Nc2ccc(S(=O)(=O)N3CCOCC3)cc2C1=Cc1cccc(F)c1O [10734/F08] | 4.8%
65 | O=C1Nc2ccc(S(=O)(=O)N3CCOCC3)cc2C1=Cc1ccc(O)c(Br)c1 [10734/F09] | −3.7%
66 | CC(C)(C)c1ccc(C=C2C(=O)Nc3ccc(S(=O)(=O)N4CCOCC4)cc32)cc1 [10734/F10] | 14.8%
67 | O=C1Nc2ccc(S(=O)(=O)N3CCOCC3)cc2C1=Cc1ccc(Br)s1 [10734/F11] | 13.3%
68 | CCOc1cccc(C=C2C(=O)Nc3ccc(CCCl)cc32)c1O [10734/G02] | 1.5%
69 | O=C1Nc2ccc(CCCl)cc2C1=Cc1cc(Cl)cc(Cl)c1O [10734/G03] | 18.7%
70 | O=C1Nc2ccc(CCCl)cc2C1=Cc1cc(Cl)ccc1O [10734/G04] | −1.1%
71 | CCN(CC)c1ccc(C=C2C(=O)Nc3ccc(CCCl)cc32)c(O)c1 [10734/G05] | 7.4%
72 | O=C1Nc2ccc(CCCl)cc2C1=Cc1ccc([N+](=O)[O-])cc1 [10734/G06] | 16.5%
73 | O=C1Nc2ccc(CCCl)cc2C1=Cc1cc(Br)cc(Br)c1O [10734/G07] | 21.9%
74 | O=C1Nc2ccc(CCCl)cc2C1=Cc1cccc(F)c1O [10734/G08] | 11.6%
75 | O=C1Nc2ccc(CCCl)cc2C1=Cc1ccc(O)c(Br)c1 [10734/G09] | 8.5%
76 | CC(C)(C)c1ccc(C=C2C(=O)Nc3ccc(CCCl)cc32)cc1 [10734/G10] | 10.8%
77 | O=C1Nc2ccc(CCCl)cc2C1=Cc1ccc(Br)s1 [10734/G11] | 8.7%
78 | CCOc1cccc(C=C2C(=O)Nc3c(Br)cc(Br)c(C)c32)c1O [10734/H02] | 0.5%
